Assay: solvent given as SMILES

## CN(C)c1ccc(/C=C/C=C2\CC/C(=C\C=C\c3ccc(N(C)C)cc3)C2=O)cc1
In C1CCCCC1
  absorption maximum: 480 nm
In CC#N
  absorption maximum: 490 nm
In CC(C)=O
  absorption maximum: 493 nm
In CC(C)O
  absorption maximum: 515 nm
In CCCCCC
  absorption maximum: 478 nm
In CCCCO
  absorption maximum: 524 nm
In CCCO
  absorption maximum: 515 nm
In CCO
  absorption maximum: 510 nm
In CCOC(C)=O
  absorption maximum: 480 nm
In CCOCC
  absorption maximum: 475 nm
In CN(C)C=O
  absorption maximum: 507 nm
In CO
  absorption maximum: 523 nm
In CS(C)=O
  absorption maximum: 512 nm
In Cc1ccccc1
  absorption maximum: 495 nm
In ClC(Cl)(Cl)Cl
  absorption maximum: 465 nm
In ClCCl
  absorption maximum: 503 nm
In OCC(F)(F)F
  absorption maximum: 534 nm
In S=C=S
  absorption maximum: 480 nm
In c1ccccc1
  absorption maximum: 475 nm
In c1ccncc1
  absorption maximum: 507 nm

## CC1=CC(C)=[N+]2C1=C(c1ccc(I)cc1)c1c(C)cc(C)n1[B-]2(OC(C)C)OC(C)C
In ClC(Cl)Cl
  absorption maximum: 504 nm

## CC(C)(C)c1ccc(-c2c(-c3cccc(N(c4ccccc4)c4ccccc4)c3)c(C#N)c(-c3cccc(N(c4ccccc4)c4ccccc4)c3)c(-c3ccc(C(C)(C)C)cc3)c2-c2ccc(C(C)(C)C)cc2)cc1
In C1CCOC1
  absorption maximum: 297 nm

## Cc1c(C)n2c(COC(=O)c3ccccc3O)c(C)c(=O)n2c1=O
In CCO
  absorption maximum: 379 nm

## CC1CCC(=CS/C=C/c2ccc(/C=C/SC=C3CCC(C)CC3)cc2)CC1 (stereo not given)
In ClCCl
  absorption maximum: 350 nm

## O=Cc1ccc(Oc2ccc3c4c(cccc24)C(=O)N(CCO)C3=O)cc1
In ClC(Cl)Cl
  absorption maximum: 355 nm

## CN(C)c1ccc(/C=C/C(=O)O)cc1
In C1CCCCC1
  absorption maximum: 358 nm
In C1CCOC1
  absorption maximum: 358 nm
In C1COCCO1
  absorption maximum: 356 nm
In CC#N
  absorption maximum: 364 nm
In CCCCO
  absorption maximum: 356 nm
In CCCO
  absorption maximum: 355 nm
In CCOC(C)=O
  absorption maximum: 358 nm
In CO
  absorption maximum: 357 nm
In Cc1ccccc1
  absorption maximum: 362 nm
In O
  absorption maximum: 323 nm
In c1ccccc1
  absorption maximum: 365 nm

## C[C@]12C(=O)NC(=O)N([C@H]3CC(O)[C@@H](CO)O3)[C@H]1[C@H]1Oc3cc4oc(=O)ccc4cc3[C@H]12 (stereo not given in full)
In CC(C)O
  absorption maximum: 327 nm
In CCO
  absorption maximum: 327 nm
In CCOCC
  absorption maximum: 325 nm
In CO
  absorption maximum: 328 nm
In O
  absorption maximum: 329 nm

## Cc1ccc(C2=Cc3ccc4ccccc4[n+]3[B-](F)(F)O2)cc1
In ClC(Cl)Cl
  absorption maximum: 432 nm

## CCN(CC)c1ccc(-c2nc3cc(C(NC(=O)OC(C)(C)C)C(=O)OC)ccc3o2)c(O)c1 (stereo not given)
In CC1CCCCC1
  absorption maximum: 364 nm
In CC#N
  absorption maximum: 364 nm
In CO
  absorption maximum: 364 nm

## CC(NC(=O)OC(C)(C)C)C(=O)OCc1ccc2c3cccc4cccc(c5cccc1c52)c43 (stereo not given)
In CCO
  absorption maximum: 437 nm

## CCC1(CC)c2ccccc2-c2ccc(C#Cc3cc(C#Cc4ccc5c(c4)C(CC)(CC)c4ccccc4-5)c4ccc5c(C#Cc6ccc7c(c6)C(CC)(CC)c6ccccc6-7)cc(C#Cc6ccc7c(c6)C(CC)(CC)c6ccccc6-7)c6ccc3c4c65)cc21
In Cc1ccccc1
  absorption maximum: 488 nm

## CC1(C)c2ccccc2N(c2ccc(-c3ncc(C#N)cn3)cc2)c2ccccc21
In Cc1ccccc1
  absorption maximum: 396 nm

## CCC1=C(C)C2=C(C)c3cc(I)c(I)n3[B-](F)(F)[N+]2=C1C
In C1CCCCC1
  absorption maximum: 532 nm
In CC(C)=O
  absorption maximum: 515.5 nm
In CCO
  absorption maximum: 520 nm
In CCOC(C)=O
  absorption maximum: 518.5 nm
In CO
  absorption maximum: 518 nm
In OCC(F)(F)F
  absorption maximum: 511.5 nm

## CC(C)(C)c1ccc(C#Cc2nc(C#Cc3ccc(C(C)(C)C)cc3)c(C#Cc3ccc(C(C)(C)C)cc3)c(C#Cc3ccc(C(C)(C)C)cc3)c2C#Cc2ccc(C(C)(C)C)cc2)cc1
In ClCCl
  absorption maximum: 421 nm

## c1ccc(N(c2ccccc2)c2ccc(-c3cnc(-c4ccncc4)s3)cc2)cc1
In CO
  absorption maximum: 403 nm

## CC[N+]1(CC)CN2C(=N1)C(C(=O)O)=Cc1c2ccc2ccccc12
In O
  absorption maximum: 406 nm

## CCOC(=O)COc1ccc(/C=C/C2=C3c4ccccc4C(c4[nH]c(C)cc4C)=[N+]3[B-](F)(F)n3c(/C=C/c4ccc(OCC(=O)OCC)cc4)cc(C)c32)cc1
In C1CCOC1
  absorption maximum: 676 nm
In CC#N
  absorption maximum: 667 nm
In CCCCCC
  absorption maximum: 674 nm
In CO
  absorption maximum: 668 nm
In Cc1ccccc1
  absorption maximum: 683 nm
In ClCCl
  absorption maximum: 676 nm

## CCCCCCCCC1(CCCCCCCC)c2cc(-c3ccc(C=C4C(=O)c5ccccc5C4=O)cc3)ccc2-c2ccc(-c3ccc(C=C4C(=O)c5ccccc5C4=O)cc3)cc21
In C1CCOC1
  absorption maximum: 436 nm
In CC(C)=O
  absorption maximum: 433 nm
In CCCCCC
  absorption maximum: 419 nm
In CS(C)=O
  absorption maximum: 441 nm
In Cc1ccccc1
  absorption maximum: 429 nm
In ClC(Cl)Cl
  absorption maximum: 444 nm

## C1=CC2=Nc3cccc[n+]3CN2C=C1
In CO
  absorption maximum: 412 nm

## CC1=C2C=CC=[N+]2[B-](F)(F)n2cccc21
In CCCCCC
  absorption maximum: 500 nm
In CO
  absorption maximum: 494 nm
In ClCCl
  absorption maximum: 499 nm

## N#Cc1ccc(C2=CC3=c4cc(-c5ccc(C#N)cc5)c5nc(C(F)(F)C(F)(F)C(F)(F)F)nc6c(-c7ccc(C#N)cc7)cc(c4c65)C4=CC(c5ccc(C#N)cc5)=C5N=C(C(F)(F)C(F)(F)C(F)(F)F)N=C2C5C43)cc1 (stereo not given)
In C1CCOC1
  absorption maximum: 492 nm

## CC1(C)c2ccccc2N(c2ccccc2)c2ccc(-c3ccc(C(=O)c4ccc(-c5ccc6c(c5)C(C)(C)c5ccccc5N6c5ccccc5)cc4)cc3)cc21
In Cc1ccccc1
  absorption maximum: 377.59 nm

From the Deep4Chem optical property database
